Experimental data: US4176189A, “Insecticidal and acaricidal hydantoin N-methylol esters” (Sumitomo Chemical Company, Limited, priority 1977, dated 1979)
Like-named read-outs stand apart in the source and are kept apart here.

Key:
Format in all cases: in vivo
[1] = test system: housefly adults (Musca domestica); test: Oil spray in (70 cm)^3 glass chamber, housefly adults, KT50 and mortality (Experimental Example 2); conditions: for mortality at 0.1 %: Musca domestica
Procedure: (§1) 0.1 Part of each of the present compounds was dissolved in kerosene and made up to 100 parts with kerosene. Thus, the oil spray of each compound was obtained. Ten northern house mosquito female adults (Culex pipiens pallens) and 10 housefly adults (Musca domestica) were liberated in a (70 cm)^3 glass chamber. 0.7 ml of the oil spray was applied and the number of knocked down insects was counted with the lapse of time. The value of KT50 was obtained from the mean knock-down ratio of three replications according to Finney's graphic method. After 10 minutes, the knocked down insects were collected and transferred to a recovery container and fed with a 5% sugar solution. After 24 hours, the dead and alive were examined.

[2] = test system: northern house mosquito female adults (Culex pipiens pallens); test: Oil spray in (70 cm)^3 glass chamber, northern house mosquito female adults, KT50 and mortality (Experimental Example 2); conditions: for mortality at 0.1 %: Culex pipiens
Procedure: as §1

[3] = test system: adult German cockroaches (Blattella germanica); test: Flushing out of German cockroaches from shelter (Experimental Example 8); conditions: 0.7 ml of 0.1% oil spray
Procedure: Ten adult German cockroaches (Blattella germanica) were liberated in a plywood-made trigonal prism like shelter with diet and water. The shelter containing cockroaches was made stand opening upward in a glass chamber (70 cm)^3, and 0.7 ml of 0.1% oil spray of each compound was applied to the chamber. The number of flushed out insects was counted with the lapse of time.

[4] = test system: housefly female adults (Musca domestica); test: Housefly female adults on treated filter paper in polyethylene cup, mortality after 48 hours (Experimental Example 1)
Procedure: Ten percent emulsifiable concentrates were prepared as in the Preparation example 3.
At the bottom of a polyethylene cup of 5.5 cm in diameter was placed a filter paper of the same size. 0.75 Ml of a 200-fold aqueous dilute solution of each emulsifiable concentrate (corresponding to 500 ppm) was dropped on the filter paper, and 30 mg of sucrose as a food was uniformly placed. Ten housefly female adults (Musca domestica) were liberated in the cup which was then covered with a lid. After 48 hours, the dead and alive were examined to obtain mortality (4 replications).

[5] = test system: Carmine mite (Tetranychus cinnabarinus); test: Carmine mite on potted kidney bean, damage after 10 days (Experimental Example 12); conditions: 200-fold aqueous dilution of emulsifiable concentrate of Preparation example 3, 10 ml/pot
Procedure: Carmine mite female adults (Tetranychus cinnabarinus) were made parasitic on leaves of the potted kidney bean (primordial leaf stage) which had elapsed 9 days after sowing, at a rate of 10-15/leaf, and bred at 27° C. for a week in a constant temperature room. […] At this time, a 200-fold aqueous dilute solution of each of the emulsifiable concentrates formulated from the present compounds (2), (6), (8), (9) and (13) according to Preparation example 3 was sprayed at a rate of 10 ml/pot by means of a turn table.

[6] = test system: northern house mosquito female adults (Culex pipiens pallens); test: Oil spray in (70 cm)^3 glass chamber, knock down of mosquitoes at 10 minutes (Experimental Example 3); conditions: oil sprays of Preparation example 1 (0.2 part in 100), 0.7 ml, 10 minutes after spraying, read-out: KD%
Text: Ten northern house mosquito female adults (Culex pipiens pallens) were liberated in a (70 cm)^3 glass chamber.

[7] = housefly adult, 0.1% oil spray, 0.7 ml
[8] = northern house mosquito female adult, 0.1% oil spray, 0.7 ml
[9] = 200-fold aqueous dilution of emulsifiable concentrate (500 ppm), 48 hours, housefly female adults, read-out: Mortality

Row | Structure (SMILES) | mortality at 0.1 % ([1]; housefly adult, 0.1% oil spray, 0.7 ml, after 24 hours, read-out: Mortality) [%] | KT50 [1, 7] [s] | mortality at 0.1 % ([2]; northern house mosquito female adult, 0.1% oil spray, 0.7 ml, after 24 hours, read-out: Mortality) [%] | KT50 [2, 8] [s] | Flushing out ([3]; 38") [%] | Flushing out ([3]; 75") [%] | Flushing out ([3]; 150") [%] | Flushing out ([3]; 300") [%] | Flushing out ([3]; 600") [%] | mortality at 500 µg/mL [4, 9] [%] | damage of kidney bean by the mites [5] | pest or weed control at 0.2 % [6] [%] | mortality at 0.1 % ([1]; 24 h) [%] | mortality at 0.1 % ([2]; 24 h) [%] | mortality at 500 µg/mL ([4]; 48 h) [%]
1 | C#CCN1CC(=O)N(COC(=O)C2C(C)(C)C2(C)C)C1=O [Present compound (9), 1-Propargyl-3-hydantoinylmethyl 2,2,3,3-tetramethylcyclopropanecarboxylate] | 20 | 150 | 95 | 35 | 15 | 55 | 60 | 70 | 80 | 100 | hardly any damage was observed | – | – | – | –
2 | C#CCN1CC(=O)N(COC(=O)C(c2ccc(Cl)cc2)C(C)C)C1=O (stereo not drawn) [Present compound (13), 1-Propargyl-3-hydantoinylmethyl α-(4-chlorophenyl)isovalerate] | – | – | – | – | – | – | – | – | – | 100 | hardly any damage was observed | 90 | – | – | –
3 | C#CCN1CC(=O)N(COC(=O)[C@@H]2[C@@H](C=C(F)F)C2(C)C)C1=O [Present compound (6)] | – | 46 | – | 19 | 47 | 74 | 79 | 79 | 100 | – | hardly any damage was observed | – | 70 | 100 | 100
4 | C=CCN1CC(=O)N(COC(=O)C2C(C=C(Cl)Cl)C2(C)C)C1=O (centres unmarked) [Present compound (2), 1-Allyl-3-hydantoinylmethyl 2,2-dimethyl-3-(2,2-dichlorovinyl)-cyclopropanecarboxylate] | – | – | – | – | – | – | – | – | – | – | hardly any damage was observed | 100 | – | – | 100
5 | C#CCN1CC(=O)N(COC(=O)[C@@H]2[C@@H](C=C3CCCC3)C2(C)C)C1=O (relative stereo) [Present compound (8), 1-Propargyl-3-hydantoinylmethyl 2,2-dimethyl-3-cyclopentylidenemethylcyclopropanecarboxylate] | – | 150 | – | 75 | – | – | – | – | – | – | hardly any damage was observed | – | 25 | 95 | 100
6 | C#CCN1C(=O)CN(COC(=O)C(c2ccc(F)cc2)C(C)C)C1=O (stereo not drawn) [Present compound (21), 3-Propargyl-1-hydantoinylmethyl α-(4-fluorophenyl)isovalerate] | – | – | – | – | – | – | – | – | – | 90 | – | 90 | – | – | –
7 | C#CCN1CC(=O)N(COC(=O)C(c2ccc3c(c2)OCO3)C(C)C)C1=O (stereo not drawn) [Present compound (16), 1-Propargyl-3-hydantoinylmethyl α-(3,4-methylenedioxyphenyl)isovalerate] | – | – | – | – | – | – | – | – | – | 90 | – | 100 | – | – | –
